Results on three compounds are retold here after paper PMC12265377, “CC48 a new CB2R agonist/FAAH inhibitor dual drug blocks gastric cancer progression and overcomes paclitaxel resistance” (Journal of Experimental & Clinical Cancer Research : CR, 2025).

Where two headings read alike, the source gives them in different places.

One may read the IC50 as the concentration at which inhibition is half-maximal. Usually Ki stands for the dissociation constant of the complex between target and ligand, obtained from inhibition or displacement.

In data set [1] the test system is NCI-N87 cells. Put plainly: MTT cytotoxicity assay. In kind it is cell-based, human. As to conditions: read-out: Cytotoxic activity IC50±SEM. Background: Tetrazolium dyes change colour on reduction, which living cells bring about.
The target in another data set is CB2R. Details: method as in PMID 7776818, PMID 36542836, PMID 36657299, PMID 20393015. As to conditions: ± SEM; read-out: CB2R affinity Ki; cited from earlier work.
Data set [2] concerns HGC27-S cells. Put plainly: Muse caspase 3/7 activation assay. It is filed as cell-based, human. As to conditions: 48 h. An excerpt: (§1) After the specified drug treatments, the cells were processed using the Muse Annexin V/Dead Cell Assay Kit (Luminex Corporation, Austin, USA) for quantitative analysis of live, early/ late apoptotic, and dead cells on a Muse Cell Analyzer. Briefly, the assay utilized Annexin V to detect phosphatidylserine on the external membrane of apoptotic cells. The fluorescent signal emitted by dye-conjugated antibodies was detected by flow cytometry technology (Muse Cell Analyzer, Luminex Corporation, Austin, USA). 7-Amino-Actinomycin D (7-AAD) dead cell marker was also used. The cells were then analyzed according to the user’s guide. […] After 48 h treatments the cells were processed according to the user’s guide and analyzed with the Muse caspase-3/7 kit (Millipore).The assay provides the relative percentage of living, early/late apoptotic or dead cells.

For data set [3], the system named is NCI-N87 cells. Put plainly: Muse caspase 3/7 activation assay. In kind it is cell-based, human.
Source text: as §1

Data set [4] relates to HGC27-R cells. Put plainly: Muse caspase 3/7 activation assay. In kind it is cell-based, human. As to conditions: 48 h.
Source text: as §1

Data set [5] deals with HGC27-S/R and AGS cell lines. Put plainly: Autophagy assay (western blot of autophagy proteins). It is filed as cell-based, human. As to conditions: 48 h, 1 and 10 µM (AM630 1 and 6 µM). The procedure:
Cells were rinsed with ice-cold lysis buffer (50 mM Tris,10 mM EDTA, 1% v/v Triton-X100), supplemented with protease inhibitor cocktail set III (80 µM aprotinin, 5 mM bestatin, 1.5 mM leupeptin, 1 mM pepstatin; Sigma-Merck, St. Louis, MO), 2 mM phenylmethyl sulfonyl fluoride and 1 mM Na3VO4, then sonicated and centrifuged at 13,000 g for 10 min at 4 °C. 20 µg protein extracts were subjected to SDS-PAGE and probed with the following antibodies: anti-ATG5 (#ab108327, diluted 1:1000), anti-ATG7 (#ab52472, diluted 1:5000), anti-ATG12 (#ab303488, diluted 1:1000), anti-Beclin (#ab210498, diluted 1:1000), anti-p62 (#ab109012, diluted 1:10000), anti-LC3 (#ab192890, diluted 1:2000)(all from Abcam, Cambridge, UK) or anti-β-tubulin antibody (#sc-5274, diluted 1:1000; Santa Cruz Biotechnology Inc.,Santa Cruz, CA, USA), followed by incubation with a peroxidase conjugated secondary antibody (Bio-Rad Laboratories, Hercules, CA). After washing in Tris-buffered saline (TBS)-Tween 0.1% v/v solution, proteins were detected by enhanced chemiluminescence (Bio-Rad Laboratories).Total protein expression was quantified using the ImageJ software (http://rsb.info.nih.gov/ij/). The expression level of each of the investigated protein was normalized to the β-tubulin level.
On the technique in general: In western blotting, separated proteins are transferred to a membrane and probed.

Data set [6] relates to HGC27-S cells. Put plainly: Migration (scratch) assay. It is filed as cell-based, human. As to conditions: scratch assay 24 h, 6 µM AM630, 10 µM others. The procedure: (§2) HGC27-S/R and AGS cells were grown until confluence. A scratch wound was generated with a pipette tip. […] Photographs were taken of each well immediately (T0) and at various times, T1 (9 h), T2 (24 h), and T3 (48 h), using a Leica DMRXA camera (Leica Microsystems, Milan, Italy). The images were analyzed using ImageJ Software (http://rsb.info.nih.gov/ij/). The distance that cells migrated through the scratch area was determined by measuring the wound width at T1, T2 and T3 and subtracting it from the wound width at the start (T0). The relative migration rate was calculated by setting the percentage of migration of the control cells at time T2 equal to 1 and comparing the percentage of migration of the cells after each drug treatment to this value. The results are representative of three independent experiments.

Data set [7] has as its system HGC27-R cells. Put plainly: Migration (scratch) assay. In kind it is cell-based, human. As to conditions: scratch assay 24 h, highest concentration. How it is done:
as §2

In data set [8] the test system is AGS cells. The experiment in a line: Migration (scratch) assay. It is filed as cell-based, human. As to conditions: scratch assay 24 h, 6 µM AM630, 10 µM others. The procedure: as §2
The subject of data set [9] is HGC27-R cells. The experiment in a line: Muse Ki67 cell proliferation assay. In kind it is cell-based, human. As to conditions: for percentage of Ki67+ cells: combined with PTX (10 µM compound; 6 µM AM630). An excerpt:
(§3) After the specified drug treatments, the cells were processed with the Muse Ki67 cell proliferation kit, which identified actively proliferating cells based on the expression of Ki67, a nuclear protein present in the active phases of the cell cycle (G1, S, G2, and M phases) and absent in the resting G0 phase. The Muse Ki67 Proliferation Assay was used with the Guava Muse Cell Analyzer according to the manufacturer’s instructions (Luminex Corporation, Austin, USA). Briefly, the cells were stained after fixation and permeabilization procedures, using Hu Ki67 or Hu IgG1 control fluorochrome-conjugated antibodies to distinguish Ki67(+) or Ki67(-) cells, respectively. The software provided the percentage of both Ki67(+) and Ki67(-) cells.

The subject of another data set is CB1R. As to conditions: cited from earlier work.
Data set [10] has as its system HGC27-R cells. The experiment in a line: VEGFA in cell culture medium (ELISA). In kind it is cell-based, human. As to conditions: 10 µM, 48 h, untreated 10.5. The procedure: (§4) The amount of VEGFA secreted in the culture medium by HGC27-S/R and AGS treated cells was measured using a highly sensitive Enzyme-Linked Immunosorbent Assay (ELISA), Quantikine Kit ELISA (R&D Systems, Minneapolis, MN, USA), according to the manufacturer’s instructions. The measured values were normalized to the number of cells.

Data set [11] deals with AGS cells. The experiment in a line: VEGFA in cell culture medium (ELISA). It is filed as cell-based, human. As to conditions: 10 µM, 48 h, untreated 8.3. The procedure: as §4
On the technique in general: An ELISA detects its analyte on a solid surface through an enzyme-linked reagent.

Data set [12] has as its system NCI-N87 cells. Put plainly: Muse Ki67 cell proliferation assay. In kind it is cell-based, human.
Source text: as §3

Where [13] appears, read: combination with 4 nM PTX, PTX alone 26.2%.
Where [14] appears, read: single treatment (4 nM PTX, 6 µM AM630, 10 µM others), untreated 13.05%.
Setting [15] is: NCI-N87, combination with 2 nM PTX, PTX alone 14.6%.
The mark [16] stands for this setting: NCI-N87, single treatment (2 nM PTX, 6 µM AM630, 10 µM others), untreated 6.35%.
Where [17] appears, read: single treatment (4 nM PTX, 6 µM AM630, 10 µM others), untreated 18.9%.
The mark [18] stands for this setting: NCI-N87, single treatment (10 µM compound; 2 nM PTX), control 78.2%.
The mark [19] stands for this setting: representative flow cytometry chart, 48 h, 10 µM CC48, PTX, single or combined as labelled.

Turning to `COc1ccc(C(=O)c2c(C)n(CCN3CCOCC3)c3cc(I)ccc23)cc1` [AM630, reference compound], the figures for the IC50 with NCI-N87 cells [1] (48h) and with NCI-N87 cells [1] (72h) were 22.7 µM and 15.6 ± 0.26 µM, respectively. Moreover, on CB2R, the Ki is 0.0312 µM. The “apoptotic cells (caspase 3/7 activation)” value was 44.3% in the data set with HGC27-S cells [2] (setting [13]), “only a slight increase” in the data set on HGC27-S cells [2] (setting [14]), 62.4% with HGC27-R cells [4] (combination with 4 nM PTX) and 32.9% in the data set on HGC27-R cells [4] (setting [17]). In addition, the “cells with activated caspase 3/7” value in the data set with NCI-N87 cells [3] (setting [15]) stood at 15.9%; in the data set on NCI-N87 cells [3] (setting [16]) it was 9.5%. For the same compound, the “expression of autophagy proteins (ATG5, ATG7, ATG12, Beclin-1, p62, LC3-II)” value in data set [5] is recorded as “dose-dependent increase of autophagic proteins”. Moreover, the figures for the “relative migration rate (untreated cells = 1)” value in the data set with HGC27-S cells [6] and in the data set with AGS cells [8] were 0.6 and 0.7, respectively. Further, the “relative migration rate (control cells = 1)” value with HGC27-R cells [7] worked out at 0.2. For the same compound, the “percentage of Ki67+ cells” value in the data set with HGC27-R cells [9] is listed as 51.3%.

Take `CCCCCNc1ccccc1C(=O)NC12CC3CC(CC(C3)C1)C2` [ASF151]: the results for the IC50 in the data set with NCI-N87 cells [1] (48h) and with NCI-N87 cells [1] (72h) were 33.1 µM and 29.3 ± 3.84 µM, respectively. On CB2R, the Ki was 0.0557 ± 0.0102 µM. Further, the “apoptotic cells (caspase 3/7 activation)” value in the data set on HGC27-S cells [2] (setting [13]) was “no further increase over PTX”; in the data set on HGC27-S cells [2] (setting [14]), 20.25%; in the data set on HGC27-R cells [4] (combination with 4 nM PTX), 50.4%; in the data set with HGC27-R cells [4] (setting [17]) it was 42%. The “cells with activated caspase 3/7” value with NCI-N87 cells [3] (setting [15]) came to 15.9%; with NCI-N87 cells [3] (setting [16]), 9.5%. Further, the “expression of autophagy proteins (ATG5, ATG7, ATG12, Beclin-1, p62, LC3-II)” value in data set [5] was “less potent inducer of some autophagy-related proteins”. Besides, the “CB1R affinity % at 1µM (percentage of displacement at 1 µM)” value in the data set on CB1R (1 µM) is listed as 31%^23. Besides, the “VEGFA secretion in culture medium” value in the data set on HGC27-R cells [10] was determined as 8 pg/mL/cell; in the data set with AGS cells [11] it was 4.4 pg/mL/cell. Besides, in the data set on NCI-N87 cells [12] (setting [18]), the “percentage of Ki67+ cells” value is 68.3%.

On to `O=C(NC12CC3CC(CC(C3)C1)C2)c1ccccc1OCc1ccccc1` [CC48], for which the IC50 in the data set with NCI-N87 cells [1] (Homo sapiens, 48h) was 15.1 µM; with NCI-N87 cells [1] (Homo sapiens, 72h), 9.42 ± 0.22 µM. Besides, the Ki is 0.0148 ± 0.00449 µM on CB2R and 0.2413 ± 0.0024 µM at CB1R (± SEM, read-out: CB1R affinity Ki). The “apoptotic cells (caspase 3/7 activation)” value in the data set with HGC27-S cells [2] (setting [13]) is 62.7%; in the data set with HGC27-S cells [2] (setting [14]), 21%; with HGC27-R cells [4] (combination with 4 nM PTX), 61.4%; in the data set on HGC27-R cells [4] (setting [17]), 33.8%. The dead cells result is “without affecting the number of dead cells” in the data set with HGC27-S cells [2] (single treatment, untreated 6.6%) and 10.4% in the data set with NCI-N87 cells [3] (NCI-N87, single treatment, control 5.8% / 5.6%). Also, the “cells with activated caspase 3/7” value was 23.3% in the data set on NCI-N87 cells [3] (setting [15]) and 17.4% in the data set on NCI-N87 cells [3] (setting [16]). Further, the “relative migration rate (untreated cells = 1)” value is given as 0.6 in the data set on HGC27-S cells [6] and 0.8 in the data set with AGS cells [8]. The “relative migration rate (control cells = 1)” value with HGC27-R cells [7] worked out at 0.76. The entries for the “VEGFA secretion in culture medium” value with HGC27-R cells [10] and in the data set on AGS cells [11] were 6.5 pg/mL/cell and 5.8 pg/mL/cell, respectively. Also, the “percentage of Ki67+ cells” value in the data set on NCI-N87 cells [12] (NCI-N87, cotreatment with PTX, PTX alone 68.1%) is listed as 59.9%; in the data set with NCI-N87 cells [12] (setting [18]), 60.9%; in the data set on HGC27-R cells [9], 67.9%. Besides, the “Ki67(+) cells” value in the data set on HGC27-R cells [9] (setting [19]) came out at 84.00%. Also, in the data set with HGC27-R cells [9] (setting [19]), the “Ki67(-) cells” value is 16.00%.
